Series [1] concerns primary myoblasts from GSD IV mice. As to the kind of experiment: rhGAA on primary myoblasts from GSD IV mice. It is filed as cell-based, mouse. As to the method: Primary myoblast cells were isolated from 7-day-old GSD IV mouse skeletal muscle. Early passage cells were seeded in 10-cm culture dishes with EMEM medium containing 10% FBS. When cells reached 90% confluence, rhGAA was added to the culture medium (final activity=1000 nmol/hr/ml). […]
Reduction of glycogen deposition in GSD IV mouse myoblasts by rhGAA treatment was also confirmed by immunofluorescence staining using a mouse anti-glycogen monoclonal antibody ESG1A9mAb.

For series [2], the system named is primary muscle cells from GSD IIIa patients. Kind of series: rhGAA on primary muscle cells from GSD IIIa patients. It counts as cell-based, human. The settings on record: GSD IIIa patient muscle cells. As to the method:
FIG. 32 illustrates an analysis of the skeletal muscle biopsies from two GSD IIIa patients, a person (Pt. 1) and a person (Pt. 2). […] (FIG. 32B) Under EM, occasional lysosomal glycogen 1 (identified at the end of arrow) was also seen in the myocytes (scale bar=1 μm). […] (FIG. 32E) GAA activity in normal and patient cells 48 h after adding recombinant human acid alpha-glucosidase (rhGAA, Myozyme*, alglucosidase alfa) treatment. […] The significance of differences between two different groups was assessed using the two-tailed, equal variance student T-test ([…]).

A further series has as its system GSD IV mice. As to the kind of experiment: rhGAA enzyme replacement therapy in GSD IV mice. It is filed as in vivo, mouse. As to the method:
(§1) Methods: A short-term study was conducted to determine the minimum effective dose (MED) of rhGAA treatment with 3 dosages: 20 mg/kg (human equivalent dose, n=6), 40 mg/kg (n=9), and 100 mg/kg (n=8). Male GSD IV mice received weekly intravenous injections of rhGAA were conducted for 4 week starting at age of 10 weeks. A group of age-matched untreated mice (n=8) were used as controls. To prevent anaphylactic reactions, the animals were administered 25 mg/kg diphenhydramine (i.p.) 10-15 min prior to enzyme administration. All mice were sacrificed 48 hours after the last injection following overnight fasting. Fresh tissues were immediately frozen and stored at −80° C. until use for GAA activity and glycogen content analyses. Protein concentration was measured using BCA method.

For the next series, the system named is GSD III mice. As to the kind of experiment: rhGAA enzyme replacement therapy in GSD III mice. It counts as in vivo, mouse. As to the method:
as §1, with “GSD III mice were used to test 3 dosages” for “A short-term study was conducted”, “treatment:” for “treatment with 3 dosages:”, “(n=6),” for “(human equivalent dose, n=6),”, “(n=5),” for “(n=9),”, “(n=7). Weekly” for “(n=8). Male GSD IV mice received weekly”

Series [3] has as its system patient with PRKAG2 pathogenic gene mutation. As to the kind of experiment: Alglucosidase alfa ERT in a patient with PRKAG2 mutation. It counts as in vivo, human. The source says:
A patient was born by caesarian section at 38 weeks gestation as a result of the nuchal cord being wrapped around their neck. The patient was noted to have hypotonia and generalized muscle weakness. They were are flexic and had feeding difficulties. The patient began developing severe lower respiratory infections which led to frequent admissions to the hospital. […] Following numerous recurrent pneumonias, and the history of muscle weakness, the patient's physicians raised Pompe disease as a potential diagnosis. […] Given the early findings of hypotonia and the low GAA enzyme activity, a diagnosis of non-classic infantile Pompe disease was made. The patient was initiated on ERT with alglucosdase alfa at a dose of 20 mg/kg every 2 weeks.
[…], the patient started ERT. They were belly crawling asymmetrically and was unable to achieve sitting from a prone or supine position. Due to weakness in their neck and trunk flexors, the patient consistently sat with their trunk completely collapsed in kyphotic position and their head propped up in capital extension in a chin poke position. […] They were able to crawl more efficiently, to achieve sitting independently from a prone or supine position, and to pull themself up into a standing posture without aid. […] […], the patient was able to walk independently with an age appropriate gait pattern and to climb small steps as well as jump off them without support. They were also able to transition independently into and out of any position, which helped them participate more fully in activities appropriate for their age.
Baseline assessments were done which included tests for AST (44 IU/L; normal range: <45 IU/L), ALT (20 IU/L; normal range: 9-80 IU/L), along with PT measures looking at muscle strength and function measures. […] Upon examination, the patient has developed more defined calf muscles, along with an improvement of […] strength and power. […] has grown physically stronger and has not had episodes in which […] lacks energy for consecutive days, becomes completely floppy, and is unable to hold their head up properly following a seizure.
At baseline, according to the MABC assessment, the patient achieved a Total Test Score of 68 ranking them in the 25th percentile. Five months after reinitiation of ERT, the patient achieved a Total Test Score of 73 on […] MABC assessment, ranking them in the 37th percentile. A minimal detectable change (MDC) for the MABC has been reported as 1.21 points, representing a true change in motor function. The results in this child show an increase of 5 points over 5 months, which is greater than the minimal important difference (MID) of the MABC, which has been reported as a change of 2.5 points shown over 6 months.

Another series relates to G6pc−/− mice. As to the kind of experiment: Rapamycin treatment of GSD Ia (G6pc−/−) mice. The following applies: GSD Ia mouse livers, which began at 7-fold the levels of wildtype livers. It is filed as in vivo. As to the method:
Candidate drugs for restoring autophagy in the GSD Ia liver were evaluated. Rapamycin is known to both have potent effects on activating autophagy as an mTORC1 inhibitor, and to regulate lipid metabolism due to its effect upon mTORC1. GSD Ia mice were treated with rapamycin daily for 7 days prior to evaluating effects upon autophagy and lipid accumulation in the liver.
G6pc−/− mice were given intraperitoneal injections of 5 mg/kg rapamycin suspended in 10% DMSO/90% PBS daily for 7 days starting on day 5 of life.
Treatment was sufficient to normalize G6pc−/− mice to the naturally low WT triglyceride levels.
Hepatic glycogen content was further analyzed using PAS staining to stain for polysaccharides, including glycogen, in liver sections. […] This confirms our hypothesis that manipulating autophagy can reduce glycogen accumulation by breaking it down through alternate routes from the traditional one relying on G6Pase, bypassing the need for G6Pase in GSD Ia hepatocytes.

Setting [4] is: rhGAA 1000 nmol/hr/ml, 24 hours.
Where [5] appears, read: weekly for 4 weeks at 20, 40 or 100 mg/kg, data not shown.
Where [6] appears, read: reassessment 5 months post ERT, initial 3.

Values joined by “and” are separate entries in the source; they are usually repeats but may differ in a detail not shown here. Equal values may be shown once. “Also recorded” adds a separate entry of the source.

In the case of “rhGAA: recombinant human acid alpha-glucosidase (rhGAA, Myozyme, alglucosidase alfa), FDA approved therapy for Pompe disease”, the entries for the “reduction of glycogen (immunofluorescence, ESG1A9mAb)” value in series [1] (4 hours) and in series [1] (24 hours) were “obvious” and “more evident”, respectively. Further, the “decrease of glycogen content” value in series [1] (setting [4]) is reported as 24%. In series [1] (setting [4]), the “increase of GAA activity” value turned out to be 50%. Moreover, the glycogen content result in series [1] (versus untreated cells) was “significantly reduced glycogen content; also recorded: significantly (p<0.01) reduced”; in series [2], “significantly reduced glycogen levels; also recorded: significantly reduced glycogen content; also recorded: significantly reduced glycogen concentration”. In addition, the “GAA activity in heart, increase” value with GSD IV mice (20 mg/kg) was found to be 1.7 fold; with GSD IV mice (40 mg/kg), 2.8 fold. Also, the entries for the “glycogen content in tissues” value with GSD IV mice (20 mg/kg) and in the series with GSD III mice (20 mg treatment) were “failed to reduce glycogen in any tissue; also recorded: not significant” and “did not affect glycogen content in any tissues”, respectively. Further, the “GAA activity in liver, increase over untreated controls” value is recorded as 29 folds in the series on GSD IV mice (20 mg/kg weekly IV for 4 weeks), 48 folds with GSD IV mice (40 mg/kg weekly IV for 4 weeks) and 67 folds in the series with GSD IV mice (100 mg/kg weekly IV for 4 weeks). Also, the “decrease of liver glycogen” value in the series on GSD IV mice (40 mg and 100 mg treatment) was 21-25%; in the series with GSD III mice (40 mg and 100 mg treatment), 24-25%. Moreover, the “change of glycogen content in liver” value is −21% in the series on GSD IV mice (40 mg/kg) and −25% with GSD IV mice (100 mg/kg). Further, the liver/body weight ratio in the series with GSD IV mice (40 mg/kg, untreated 5.8±0.2%, p<0.05) was found to be 5.0±0.2%. In addition, in the series with GSD IV mice (40 mg/kg, untreated 1029±87 U/L, p<0.01), the “plasma alanine aminotransferase (ALT)” value was 650±32 U/L. Besides, in the series on GSD IV mice (40 mg/kg, untreated 1059±93 U/L, p=0.074), the “plasma aspartate aminotransferase (AST)” value was found to be 849±50 U/L. The “GAA activity in skeletal muscles, increase” value in the series with GSD IV mice (100 mg/kg) was found to be 1.6 folds. Also, the “glycogen content in skeletal muscle” value in the series on GSD IV mice (40 and 100 mg/kg) is recorded as “not in any skeletal muscle”. Moreover, the “GAA activity in quadriceps, increase” value in the series with GSD IV mice (either dosage (20, 40 mg/kg)) was “negligible”. Also, the “GAA activity in gastrocnemius, increase” value in the series on GSD IV mice (either treated group (20, 40 mg/kg)) is recorded as “less than 1 fold”. In addition, the “anti-GAA antibodies compared with those reported in GAA-KO mice” value in the series on GSD IV mice (setting [5]) and in the series on GSD III mice (setting [5]) was “significantly less” throughout. In addition, the “glycogen content in heart” value in the series with GSD III mice (40 mg and 100 mg treatments) was “significantly reduced glycogen contents”. The “glycogen content in liver” value with GSD III mice (40 mg and 100 mg treatments) was “significantly reduced glycogen contents”. Further, the “ratio of liver/body weight” value in the series on GSD III mice (40 mg and 100 mg treatments) is recorded as “reduced ratio of liver/body weight”. In the series on GSD III mice (weekly IV for 4 weeks), the “GAA enzyme uptake, order of GAA activity by tissue” value is reported as “liver>heart>diaphragm>leg muscles”. Also, in series [3] (after five months of reinitiated ERT), the “neurological, occupational therapy and physical therapy reports” value is “significant improvement”. In addition, the gross motor abilities result in series [3] (first ERT course, 20 mg/kg every 2 weeks, three months after initiation) was “began improving”. For the same compound, in series [3] (over 5 months of ERT), the “Movement ABC increase of Total Score” value was 5 points. In addition, the “Movement ABC percentile increase” value in series [3] (over 5 months of ERT) was found to be 12. The “Movement ABC Percentile” value in series [3] (re-assessment 5 months on ERT, pre-ERT 25th percentile) was 37 percentile and 37th percentile. Besides, the “Movement ABC Total Score” value in series [3] (re-assessment 5 months on ERT, pre-ERT 68) is 73. The “M-FUN Fine Motor Scaled Score” value in series [3] (setting [6]) was 5 (considered mild/borderline. Moreover, the “M-FUN Gross Motor Scaled Score” value in series [3] (setting [6]) is listed as 3 (considered very low/severe. Besides, the “M-FUN Visual Motor Scaled Score” value in series [3] (reassessment 5 months post ERT, initial 6) is reported as 9 (considered “average” or. For the same compound, the “M-FUN Gross Motor Progress Score” value in series [3] (reassessment 5 months post ERT, initial 288) came out at 407. Further, the “M-FUN Fine Motor Progress Score” value in series [3] (reassessment 5 months post ERT, initial 292) was 394. Further, in series [3] (reassessment 5 months post ERT, initial 374), the “M-FUN Visual Motor Progress Score” value is given as 496. Also, the fatigue at assessment result in series [3] (reassessment at five months of ERT) is “less fatigue”.

Regarding `CO[C@H]1C[C@@H]2CC[C@@H](C)[C@@](O)(O2)C(=O)C(=O)N2CCCC[C@H]2C(=O)O[C@H]([C@H](C)C[C@@H]2CC[C@@H](O)[C@H](OC)C2)CC(=O)[C@H](C)/C=C(\C)[C@@H](O)[C@@H](OC)C(=O)[C@H](C)C[C@H](C)/C=C/C=C/C=C/1C` [Rapamycin, rapamycin], the “reduction of hepatic triglycerides” value in the series with G6pc−/− mice is 50%.

The values above are taken from patent US12036190B2, “Methods and compositions for the treatment of cytoplasmic glycogen storage disorders” (Duke University, priority 2015, dated 2024).
